Source: publication PMC6560211, “ApoAI-derived peptide increases glucose tolerance and prevents formation of atherosclerosis in mice” (Diabetologia, 2019)

Legend:
[1] = tested on: Lepr db (db/db) mice; experiment: GTT in db/db mice; type: in vivo, mouse; details: db/db 5.5 weeks
Method: (§1) Male C57BL/6NTac mice (Taconic, Ejby, Denmark) at 8–9 weeks of age were acclimatised for 1 week on a normal chow diet, then changed to a high-fat diet for 2 weeks (diet-induced obesity; DIO), followed by GTT as indicated. Male Lepr^db (db/db) mice on a BKS background (Taconic) at 5 weeks of age were maintained on a normal chow diet and GTTs were performed at 5.5 and 14 weeks of age as indicated. Blood glucose levels were measured in fresh blood (C57: OneTouch Ultra2, Lifescan, Milpitas, CA, USA; db/db: GlucoSmart Swing, MSP bodmann, Bobingen, Germany) and insulin levels were assayed in serum using ELISA (Mercodia) at the times indicated in ESM Fig. 2. See ESM Methods for more details.
(§2) Fig. 4 Acute treatment with RG54 improves glucose tolerance during GTTs in three models of type 2 diabetes. Male C57Bl/6 mice fed a high-fat diet for 2 weeks (a–d) or db/db mice at 5.5 (e–h) or 14 (i–l) weeks old were fasted overnight, then treated with a single i.p. injection of NaCl (negative control, 200 μl; C57, n=12; db/db 5.5 weeks, n=6; db/db 14 weeks, n=6), liraglutide (0.1 mg/kg; C57, n=11; db/db 5.5 weeks, n=6; db/db 14 weeks, n=6), ApoA-I (14 mg/kg; C57, n=12; db/db 5.5 weeks, n=6; db/db 14 weeks, n=6) or RG54 (12 mg/kg; C57, n=12; db/db 5.5 weeks, n=6; db/db 14 weeks, n=5). After a further 3 h, mice received an i.p. glucose load (40 mg/mouse for C57; 50 mg/mouse for db/db) followed by blood and plasma collection at the indicated times, and blood glucose (a,e,i) and plasma insulin (b,f,j) concentrations were determined. Total AUC was calculated (mmol/l × min for glucose, pmol/l × min for insulin) and then normalised to the average value of the relevant NaCl control group to give relative AUC (% control) for glucose (c,g,k) and insulin (d,h,l). Values are means ± SEM. *p≤0.05, **p≤0.01, ***p≤0.001 vs NaCl control […]
We next used type 2 diabetes models with a more advanced phenotype: db/db mice at 5.5 and 14 weeks of age.
At 14 weeks of age, mice were markedly obese with a mean ± SEM body weight of 55.3 ± 0.6 g. […] One mouse was excluded from RG54 treatment group because of very high residual insulin secretion prior to the experiment.
Male C57BL/6NTac mice were purchased from Taconic (Ejby, Denmark) at 8-9 weeks of age, acclimatised for one week on normal chow diet, then changed to a High-Fat Diet (HFD; Research Diets D12492, 60% fat content) for 2 weeks, followed by glucose tolerance testing (GTT) with timings as indicated (ESM Figure 2). Male Leprdb mice (db/db) on BKS background purchased from Taconic (BKS.Cg-m+/+Leprdb/BomTac, Ejby, Denmark) at 5 weeks of age were maintained on normal chow diet and GTTs were performed at 5.5 and 14 weeks of age with timings as indicated (ESM Figure 2). For the GTTs, mice fasted overnight (9 h) were injected with the appropriate treatment, and after an additional 3 h given ip glucose (C57: 40 mg/mouse; db/db: 50 mg/mouse) followed by collection of serum samples at the indicated times. Blood glucose levels were measured in fresh blood (C57: OnetouchUltra2, Lifescan; db/db: GlucoSmart Swing, MSP bodmann) and insulin levels were assayed in serum using ELISA (Mercodia). db/db mice were independently randomized to treatments groups for GTT at each time point as no carry over was expected between experiments due to the acute nature of the treatment effects. Primary outcomes were blood glucose and insulin measurements during the GTT. C57BL/6NTac mice were euthanized immediately after each experiment whereas db/db were euthanized immediately after the GTT at 14 weeks of age. […]
and reproducible clinical symptoms of diabetes than females in these models [5; 6] thus ensuring the reproducibility of clinical symptoms between animals within the study. […]

[2] = tested on: DIO C57BL/6NTac mice; experiment: GTT in diet-induced obesity (DIO) mice; type: in vivo, mouse; details: for fasting glucose levels / fasting insulin levels / insulin sensitivity as measured by QUICKI: DIO mice, 3 h treatment, i.p.
Method: as §1
The effect of RG54 peptide on glucose disposal was investigated in an established insulin-resistant mouse model. DIO mice were fasted for 9 h followed by a single i.p. dose of RG54 (12 mg/kg), ApoA-I (14 mg/kg), liraglutide (0.1 mg/kg), or an equal volume of NaCl solution. After a further 3 h fasting period, GTTs were performed (Fig. 4a,b).
as §2
We directly compared the i.p. and s.c. injection routes in DIO mice. DIO mice were fasted for 9 h, followed by a single i.p. or s.c. injection of RG54 (12 mg/kg), ApoA-I (14 mg/kg), or an equal volume of NaCl solution. After a further 3 h fasting and incubation period, GTTs were performed. […] Finally, we assessed the dose response of s.c. RG54 to find treatment concentrations with full or partial effects on glycaemic control as compared with our positive control (Fig. 6).
Male C57Bl/6 mice fed a high-fat diet for 2 weeks were fasted overnight, then treated with a single i.p. or s.c. injection of NaCl (negative control, 200 μl, n=6), ApoA-I (14 mg/kg, n=6) or RG54 (12 mg/kg, n=6). After a further 3 h, all mice received an i.p. glucose load (40 mg/mouse) followed by blood and plasma collection at the indicated times, and blood glucose (a,b) and plasma insulin (d,e) concentrations were determined for all injection routes. Total AUC was calculated (mmol/l × min for glucose, pmol/l × min for insulin) and then normalised to the average value of the relevant NaCl control group to give relative AUC (% control) for glucose (c) and insulin (f). Values are means ± SEM. ***p≤0.001 vs NaCl control […]
Male C57BL/6NTac mice were purchased from Taconic (Ejby, Denmark) at 8-9 weeks of age, acclimatised for one week on normal chow diet, then changed to a High-Fat Diet (HFD; Research Diets D12492, 60% fat content) for 2 weeks, followed by glucose tolerance testing (GTT) with timings as indicated (ESM Figure 2). Male Leprdb mice (db/db) on BKS background purchased from Taconic (BKS.Cg-m+/+Leprdb/BomTac, Ejby, Denmark) at 5 weeks of age were maintained on normal chow diet and GTTs were performed at 5.5 and 14 weeks of age with timings as indicated (ESM Figure 2). For the GTTs, mice fasted overnight […]

[3] = rHDL formation, particle size by DLS; details: 1:100 protein:lipid molar ratio, extruded 100 nm MLVs, 4 days (96 h), 24°C
Method: 1,2-dimyristoyl-sn-glycero-3-phosphocholine (DMPC; Avanti Polar Lipids, Alabaster, AL, USA) was formed into 100 nm multilamellar vesicles (MLV) via extrusion using the LiposoFast system (Avestin, Ottawa, ON, Canada) as previously described. MLV were incubated with RG54 or ApoA-I at the indicated ratios for 4 days at 24°C to form rHDL. The resulting particle sizes were measured by dynamic light scattering (DLS) using a Zetasizer APS (Malvern Instruments, Uppsala, Sweden).
The reduced initial rate may be due to a more complex binding pattern of the larger number of RG54 peptides needed per formed particle: four to five RG54 molecules (54 amino acids each) are needed to make up the size of full-length ApoA-I (243 amino acids). A qualitative assessment of particle formation was therefore next used to evaluate and compare the sizes of formed rHDL. The hydrodynamic diameters of lipid–protein complexes formed after extended incubation (96 h) of RG54 or ApoA-I with extruded 100 nm MLVs were estimated using DLS.
ESM Figure 4. Lipid clearance and peptide-lipid complex formation activity of RG54 compared with full-length ApoA-I. […]

Compound | insulin secretion at the 15-min time point ([1]; liraglutide 0.1 mg/kg i.p.) | overall insulin AUC ([1]; liraglutide 0.1 mg/kg i.p.) | fasting glucose levels [2] | fasting insulin levels [2] | insulin sensitivity as measured by QUICKI [2] | fasting glucose levels ([1]; 3 h treatment, i.p.) | fasting insulin secretion ([1]; 3 h treatment, i.p.) | insulin sensitivity as measured by QUICKI ([1]; 3 h treatment, i.p.) | insulin secretion in GTT ([2]; route comparison, i.p. injection, RG54 12 mg/kg, ApoA-I 14 mg/kg, n=6) | lipid-protein complexes formed (DLS frequency plots) [3]
CCCCCCCCCCCCCCCC(=O)N[C@@H](CCC(=O)NCCCC[C@H](NC(=O)[C@H](C)NC(=O)[C@H](C)NC(=O)[C@H](CCC(N)=O)NC(=O)CNC(=O)[C@H](CCC(=O)O)NC(=O)[C@H](CC(C)C)NC(=O)[C@H](Cc1ccc(O)cc1)NC(=O)[C@H](CO)NC(=O)[C@H](CO)NC(=O)[C@@H](NC(=O)[C@H](CC(=O)O)NC(=O)[C@H](CO)NC(=O)[C@@H](NC(=O)[C@H](Cc1ccccc1)NC(=O)[C@@H](NC(=O)CNC(=O)[C@H](CCC(=O)O)NC(=O)[C@H](C)NC(=O)[C@@H](N)Cc1c[nH]cn1)[C@@H](C)O)[C@@H](C)O)C(C)C)C(=O)N[C@@H](CCC(=O)O)C(=O)N[C@@H](Cc1ccccc1)C(=O)N[C@H](C(=O)N[C@@H](C)C(=O)N[C@@H](Cc1c[nH]c2ccccc12)C(=O)N[C@@H](CC(C)C)C(=O)N[C@H](C(=O)N[C@@H](CCCNC(=N)N)C(=O)NCC(=O)N[C@@H](CCCNC(=N)N)C(=O)NCC(=O)O)C(C)C)[C@@H](C)CC)C(=O)O [liraglutide, reference compound] | modest, transient increase | not increased | significantly lowered | no concomitant increase | no change |  |  |  |  | 
ApoA-I: Recombinant human ApoA-I, full-length (243 amino acids), used as control |  |  | significantly lowered | no concomitant increase | no change | significantly lowered | no significant changes | no concomitant change | increased insulin secretion | single peaks corresponding to rHDL particles
